The supplement of paper PMC10307832

Legend:
Assay in all cases: relative viability (nuclei count vs DMSO), 5 days (fraction); higher = more cells survive
[1] = compound: CC[C@H](Nc1ncnc2[nH]cnc12)c1nc2cccc(F)c2c(=O)n1-c1ccccc1 [Idelalisib] + Nc1nc2[nH]cc(CCc3ccc(C(=O)N[C@@H](CCC(=O)O)C(=O)O)cc3)c2c(=O)[nH]1 [Pemetrexed] (partner 0.2 µM)
How it was run: (§1)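 A single step with final 0.05% Triton X-100, 1% formaldehyde and 1 ug/ml Hoechst fixed the cells and stained nuclei 5 days after treatment. Lung cancer cell lines in 1536-well plates had been treated by pin tool the day after seeding with one drug alone or a fixed anchor-drug dose plus five library-drug doses (not always all listed) in √10 steps, and nuclei were counted on 4× images. Relative viability is the ratio of nuclei in treated wells to nuclei in vehicle wells, taken as the median of duplicate plates.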

[2] = compound: CC[C@H](Nc1ncnc2[nH]cnc12)c1nc2cccc(F)c2c(=O)n1-c1ccccc1 [Idelalisib] + CS(=O)(=O)N1CCN(Cc2cc3nc(-c4cccc5[nH]ncc45)nc(N4CCOCC4)c3s2)CC1 [Pictilisib] (partner 1 µM)
How it was run: as §1

[3] = compound: CC[C@H](Nc1ncnc2[nH]cnc12)c1nc2cccc(F)c2c(=O)n1-c1ccccc1 [Idelalisib] + CCNC(=O)c1noc(-c2cc(C(C)C)c(O)cc2O)c1-c1ccc(CN2CCOCC2)cc1 [Luminespib] (partner 0.01 µM)
How it was run: as §1

[4] = compound: CC[C@H](Nc1ncnc2[nH]cnc12)c1nc2cccc(F)c2c(=O)n1-c1ccccc1 [Idelalisib] + C[C@@H](Oc1cc(-c2cnn(C3CCNCC3)c2)cnc1N)c1c(Cl)ccc(F)c1Cl [Crizotinib] (partner 1 µM)
How it was run: as §1

Cell Line	relative viability ([1]; first compound 0.04 µM)	relative viability ([1]; first compound 0.1265 µM)	relative viability ([1]; first compound 0.4 µM)	relative viability ([1]; first compound 1.265 µM)	relative viability ([1]; first compound 4 µM)	relative viability ([2]; first compound 0.04 µM)	relative viability ([2]; first compound 0.1265 µM)	relative viability ([2]; first compound 0.4 µM)	relative viability ([2]; first compound 1.265 µM)	relative viability ([2]; first compound 4 µM)	relative viability ([3]; first compound 0.04 µM)	relative viability ([3]; first compound 0.1265 µM)	relative viability ([3]; first compound 0.4 µM)	relative viability ([3]; first compound 1.265 µM)	relative viability ([3]; first compound 4 µM)	relative viability ([4]; first compound 0.04 µM)	relative viability ([4]; first compound 0.4 µM)	relative viability ([4]; first compound 1.265 µM)	relative viability ([4]; first compound 4 µM)	relative viability ([4]; first compound 0.1265 µM)
NCI-H661	0.973	0.926	0.911	0.952	0.924	0.426	0.37	0.446	0.468	0.456	0.985	0.907	0.85	0.987	1.04	1.04	1.08	1.14	0.943	
PC-3 [JPC-3]	1.4	1.16	1.11	1.09	1.08	0.895	0.749	0.73	0.737	0.601	0.487	0.65	0.69	0.65	0.497	1	0.94	0.98	0.881	1.04
NCI-H1651	0.634	0.355	0.537	0.522	0.59	0.685	0.574	0.523	0.762	0.625	0.789	1	0.832	0.809	0.605	0.919	0.846	0.864	0.876	0.861
NCI-H1355	1.03	1.04	0.926	1.09	1.01	0.521	0.501	0.4	0.376	0.449	0.672	0.779	0.531	0.628	0.602	1.21	0.977	0.988	0.902	1.13
LC-2-ad	0.282	0.276	0.25	0.267	0.26	0.534	0.516	0.415	0.467	0.417	1.17	1.06	0.886	1.14	0.957	0.427	0.447	0.439	0.508	0.415
NCI-H1944	0.724	0.58	0.516	0.484	0.586	0.374	0.357	0.308	0.376	0.33	0.809	0.621	0.609	0.636	0.532	1.38	1.02	0.976	0.97	0.994
HCC-827	0.267	0.218	0.232	0.249	0.25	0.995	1.06	1.05	1.09	0.843	1.18	0.545	0.478	0.249	0.374	0.978	0.864	0.927	0.838	0.943
